Consider two compounds from US20190167660A1, “PPAR-gamma AGONIST FOR TREATMENT OF BONE DISORDERS” (InteKrin Therapeutics, Inc., priority 2016, published 2019).

The subject of data set [1] is adiponectin. Put plainly: randomized, double-blind, placebo-controlled, 24-week study in subjects with type 2 diabetes: adiponectin levels. The format is in vivo, human. As to conditions: for Mean Change in adiponectin from baseline (Week 0) to Week 24: LOCF, type 2 diabetes subjects. The protocol: A randomized, double-blind, placebo-controlled, 24-week study was conducted in which adiponectin levels were measured. […] 367 subjects with type 2 diabetes (TD2)—a disease in which patient adiponectin levels are reduced—were randomly assigned to receive either 0.5, 1, 2 or 3 milligrams (“mg”) of INT131 besylate, 45 mg of pioglitazone or placebo daily for 24 weeks. To measure adiponectin levels blood was drawn at Weeks 0, 2, 6, 12 and 24.
At baseline (Week 0) mean adiponectin levels were 1.94 micrograms per milliliter (“μg/mL”). The mean adiponectin levels at baseline and Week 24, and the mean change in adiponectin levels from baseline (Week 0) to Week 24 are disclosed in Table 1, below. The standard deviation for samples tested in each group is listed in (parenthesis). Mean baseline adiponectin values were similar for the treatment groups.

In data set [2] the test system is HbA1c. Nature of the data set: 24-week study in subjects with type 2 diabetes: HbA1c levels. The format is in vivo, human. The conditions noted are these: 2 and 3 mg doses of INT131, daily for 24 weeks.
The test system of data set [3] is adiponectin. Put plainly: 14-day study in healthy subjects: serum adiponectin levels. The format is in vivo, human. The protocol: (§1) A study was conducted to determine the effect of INT131 on serum adiponectin levels. Thirty healthy subjects were randomly selected to receive either placebo, 0.1 mg INT131, 1 mg INT131 or 4 mg INT131 daily for 14 days. To measure adiponectin levels blood was drawn at Days 1, 4, 8 and 14.

Data set [4] relates to adiponectin. Put plainly: Example 3 (INT131 activates bone remodeling): 14-day study in healthy subjects. The format is in vivo, human. As to conditions: 0.1 mg INT131 daily for 14 days. The protocol: as §1
Data set [5] relates to mesenchymal stem cells (MSCs). Put plainly: differentiation of mesenchymal stem cells into osteoblasts / adipocytes. Format: cell-based. The conditions noted are these: no method described.
In data set [6] the test system is HbA1c. As to conditions: DePaoli et al., Diabetes Care 2014; cited from earlier work.
The conditions of data set [7]: DePaoli et al., Diabetes Care 2014; cited from earlier work.
Data set [8] has as its system diet-induced obese mice. As to conditions: 10 mg/kg of INT131, Lee et al. 2012; cited from earlier work.
[9] abbreviates: 0.1 mg INT131 daily for 14 days.

Regarding `CCc1ccc(CCOc2ccc(CC3SC(=O)NC3=O)cc2)nc1` (stereo not shown) [pioglitazone, reference compound], the “Mean Change in adiponectin from baseline (Week 0) to Week 24” value in data set [1] (45 mg pioglitazone daily) is 2.96 µg/mL.
`O=S(=O)(Nc1cc(Cl)c(Oc2cnc3ccccc3c2)c(Cl)c1)c1ccc(Cl)cc1Cl` [INT131]: the “Mean Change in adiponectin from baseline (Week 0) to Week 24” value in data set [1] (0.5 mg INT131 besylate daily) worked out at 0.56 µg/mL; in data set [1] (1 mg INT131 besylate daily), 1.28 µg/mL; in data set [1] (2 mg INT131 besylate daily), 3.27 µg/mL; in data set [1] (3 mg INT131 besylate daily), 3.83 µg/mL. Moreover, in data set [1] (1 mg, 2 mg and 3 mg doses of INT131, p≤0.0109), the “treatment comparison with placebo, adiponectin levels” value was “statistically significant”. For the same compound, the “reduction of HbA1c levels compared with 45 mg of pioglitazone” value in data set [2] is given as “at least as well”. In data set [3] (setting [9]), the “change in adiponectin levels over placebo” value is recorded as “no significant change”. Further, the “change in serum adiponectin levels from Day 1 to Day 14” value in data set [3] (setting [9]) is given as “no significant change”. The “change in serum adiponectin levels over placebo” value in data set [3] (1 mg or 4 mg INT131 daily for 14 days) was “significant change”. In addition, the “change from Day 1 to Day 14 (sentence breaks off)” value in data set [4] was “no significant”. Further, the “differentiation of mesenchymal stem cells (MSCs) into osteoblasts” value in data set [5] is given as “promotes”. In addition, the increase of adipocytes result in data set [5] is “does not result in an increase”. Also, in data set [6], the “efficacy in reducing HbA1c levels compared with 45 mg of pioglitazone” value is “equally efficacious”. Besides, the “edema, weight gain and hemodilution compared with subjects taking pioglitazone” value in data set [7] is reported as “less”. Besides, the “effect on bone mass” value in data set [8] is “does not affect bone mass”.
